# Assay results from patent US10173968B2, “Bishydrazone-based antifungal agents” (University of Kentucky Research Foundation, priority 2016, dated 2019).
# Tests used:
# [1] = Mammalian cell cytotoxicity, resazurin; type: cell-based; conditions: human
# Experimental: Another important aspect to consider during the development of antimicrobial agents is their potential toxicity towards mammalian cells. Having established the potent antimicrobial activities of the bis(N-amidino)hydrazones and N-amidino-N′-aryl-bishydrazones against bacteria and fungi, the toxicity profile of these compounds was determined against two mammalian cell lines (A549 and BEAS-2B; FIGS. 4A-B). […]. Cytotoxicity assays were performed as previously described. The human lung carcinoma epithelial cells A549 and the normal human bronchial epithelial cells BEAS-2B were grown in F12-K and DMEM medium containing 10% fetal bovine serum (FBS) and 1% antibiotics, respectively. The confluent cells were trypsinized with 0.05%-trypsin-0.53 mM EDTA, centrifuged (1,200 rpm) and resuspended in fresh medium (F12-K or DMEM). The cells were seeded into 96-well microtiter plates at a density of 3,000 cells/well and were grown overnight. […] Triton X-100® (0.5%, v/v) gave complete loss of cell viability and was used as the positive control. The percent cell survival was calculated as: (test value/control value)×100, where control value represents cells+resazurin−drug, and test value represents cells+resazurin+drug.
# [2] = tested on: all bacterial strains tested; test: Antibacterial MIC, summary over the panel; type: cell-based; conditions: read-out: antibacterial MIC values
# Experimental: MIC values were determined against a variety of Gram-positive (strains A-D) and Gram-negative (E-J) bacterial and mycobacterial (K) strains using the double-dilution method, as previously published. Preliminary screening was performed using 500 μM of each compound.
compound,measurement,setting,value
"Cl.N=C(N)N/N=C/c1ccc(-c2ccc(/C=N/Nc3ccc(F)cc3)cc2)cc1 [Compound 7Ac, (E)-2-((4′-((E)-(2-(4-Fluorophenyl)hydrazono)methyl)-[1,1′-biphenyl]-4-yl)methylene)hydrazine-1-carboximidamide monohydrochloride]",IC50 at 24 h,[1]; BEAS-2B,7.8 to 15.6 mg/L
same,IC50 at 24 h,"[1]; A549, 24 h",7.8 to 15.6 mg/L
same,MIC,[2],0.4 to 3.3 mg/L
same,melting point,,> 380 °C
